US9295630B2, “Vitamin C complexes” (CENTRE NATIONAL DE LA RECHERCHE SCIENTIFIQUE, priority 2012, dated 2016)
Like-named read-outs stand apart in the source and are kept apart here.

Assays:
Format in all cases: cell-based
[1] = system: explants of human skin; assay: General morphology / acanthosis of human skin explants (Masson's trichrome staining); conditions: for dermal stimulation / epidermal stimulation: topical, D10, relative to control No. 0
Experimental: (§1) Explants of human skin with a diameter of about […], obtained from surgical waste from cosmetic surgery and more particularly from abdominoplasty of women about thirty years of age, are used. The human skin is kept alive in a usual nutrient medium at 37° C. in humid atmosphere, enriched with 5% CO2, for ten days.
(§2) The explants of human skin are treated using a gel according to the invention comprising the VitC-SQ complex or conjugate according to the invention obtained in example 1a formulated in squalene as described in example 3 to obtain compositions comprising 1 wt % and 3 wt % respectively, expressed as weight of vitamin C active ingredient relative to the total weight of the composition. To obtain values of 1% and 3% respectively, expressed as weight of vitamin C, the concentration of the VitC-SQ complex is adjusted accordingly.
(§3) These two active ingredients are used at a concentration of 1 wt % and 3 wt %, expressed as weight of vitamin C active ingredient relative to the total weight of the composition.
(§4) Each of the compositions tested is applied topically, at a rate of 2 mg per explant, on the explants of human skin using a spatula on day zero (DO), then at 1 day (D1), at 3 days (D3), at 6 days (D6) and finally at 8 days (D8).
(§5) On the tenth day, the explants treated with each of the compositions are taken and are submitted to the same conditions as the explants of control No. 0.
After 48 hours of fixation in ordinary Bouin, the samples are dehydrated and impregnated with paraffin using a Leica 1020 automatic dehydrator. Then they are made into a block according to procedure MO-H-153 using a Leica EG 1160 coating station.
5-μm sections are prepared using a Minot type microtome, Leica RM 2125, and are glued on superfrost silanized glass histology slides.
Microscopic observations are performed in light microscopy, using a Leica microscope of the Orthoplan type, with x 25 and x 40 objectives. The images are recorded with a Sony DXC 390P tri CCD camera and are stored using Leica IM1000 data archiving software.
Acanthosis of the skin, and more generally observation of the general morphology is carried out on sections in paraffin after staining with Masson's trichrome, Goldner's variant, according to procedure MO-H-157.

[2] = system: neutral GAGs; assay: Expression of neutral GAGs in human skin explants (alcian blue/PAS staining); conditions: topical, D10, relative to control No. 0
Experimental: as §1, §2, §3, §4, §5
(§6) Neutral GAGs, reservoirs of the growth factors near the dermal-epidermal junction, and acid GAGs, essentially hyaluronic acid, are examined on paraffin sections after staining with alcian blue/PAS (Mowry staining)

[3] = system: acid GAGs; assay: Expression of acid GAGs in human skin explants (alcian blue/PAS staining); conditions: topical, D10, relative to control No. 0
Experimental: as §1, §2, §3, §4, §5, §6

[4] = system: type I collagen; assay: Expression of type I collagen in human skin explants (immunolabeling); conditions: gel at 3 wt % as vitamin C, topical, D10, relative to control No. 0
Experimental: (§7) For this assessment, only certain of the explants of human skin described above are used. More particularly, they are untreated explants (control No. 0) and explants treated with VitC-SQ according to the invention at 3 wt %, with free vitamin C at 3 wt % (control No. 1) and with VitC-palm at 3 wt % (control No. 2), expressed as weight of vitamin C active ingredient relative to the total weight of the composition.
(§8) The microscopic observations are carried out in light microscopy, using a Leica microscope, type DMLB, with x 40 objective. The images were recorded with an Olympus DP72 camera, using Olympus Cell^D acquisition and archiving software.
Type I collagen is labeled on frozen sections with a rabbit anti-human collagen I antibody (Monosan ref PS047, polyclonal), at 1/800th for 1 hour at room temperature with a biotin/streptavidin amplifier system, detected by fluorescence (FITC caltag SA 1001). The nuclei were counterstained with propidium iodide.

[5] = system: type III collagen; assay: Expression of type III collagen in human skin explants (immunolabeling); conditions: gel at 3 wt % as vitamin C, topical, D10, relative to control No. 0
Experimental: as §7, §8
Regarding the labeling of type III collagen, the latter is labeled on sections in paraffin (fixation with formol) with a goat anti-human collagen III polyclonal antibody (SBA ref: 1330-01), at 1/50th overnight at room temperature using a Vectastain RTU Universal VECTOR avidin/biotin amplifier system, detected in diaminobenzidine (DAB) with the nuclei counterstained with Masson's hemalum.

[6] = system: CCD34SK human fibroblasts; assay: Test of cellular viability (MTT assay); conditions: for IC50: 4 h incubation then 48 h, read-out: IC50 (loss of 50% in cellular viability)
Experimental: 10 000 cells of CCD34SK human fibroblasts per well were seeded in a 96-well plate.
The test products are added to the wells in different concentrations. After 4 h of incubation, the culture medium is replaced with new biological medium and the cells are incubated for 48h at 37° C. and 5% CO2.
Then, the culture medium is removed by inverting and 100 μL, of PBS/well with MTT at a concentration of 0.5 mg/ml is added. The plate is put back in the incubator for 2 h at 37° C. and 5% CO2. In order to dissolve the dark blue crystals of formazan that have formed, 100 μL of a solution of SDS (sodium dodecyl sulfate) is added to each well and then the plate is incubated again for 12 h at 37° C. and 5% CO2.
At the end of the 12 h, spectrophotometric measurements are carried out on an ELISA plate reader at a wavelength of 570 nm. The percentage viability of the cells in the presence of the test molecules is then calculated from the following formula: (mean OD of the treated cells—OD of control with medium only/mean OD of the control cells (100% viability)—OD of control with medium only)×100±standard deviation; or presented in the form of curves plotting the evolution of absorbance as a function of time.
The IC50 values (“inhibitory concentration 50%” or the concentration that inhibits growth of 50% of the cells) then correspond to a product concentration tested generating a loss of 50% in cellular viability (see Table below).

Structure (SMILES)	effect on skin explants (overall) ([1]; dose less than or equal to 3 wt % as vitamin C)	dermal stimulation ([1]; gel at 1 wt % as vitamin C)	epidermal stimulation ([1]; gel at 1 wt % as vitamin C)	dermal stimulation ([1]; gel at 3 wt % as vitamin C)	epidermal stimulation ([1]; gel at 3 wt % as vitamin C)	overexpression of neutral GAGs ([2]; gel at 1 wt % as vitamin C)	overexpression of neutral GAGs ([2]; gel at 3 wt % as vitamin C)	overexpression of epidermal acid GAGs ([3]; gel at 1 wt % as vitamin C)	overexpression of epidermal acid GAGs ([3]; gel at 3 wt % as vitamin C)	expression of type I collagen [4]	expression of type III collagen [5]	dermal and epidermal stimulation compared with VitC-Palm ([1]; at equivalent dose of vitamin C)	toxicity relative to VitC-palm [6]	IC50 ([6]; Fibroblast)	IC50 [6]
O=C1OC(C(O)CO)C(O)=C1O (centres unmarked) [Free vitamin C, 5-(1,2-dihydroxy-ethyl)-3,4-dihydroxy-5H-furan-2-one]	no effect	No dermal stimulation	No epidermal stimulation	Moderate dermal stimulation	No epidermal stimulation	No overexpression of neutral GAGs	No overexpression of neutral GAGs	No overexpression of epidermal acid	No overexpression of epidermal acid	No overexpression of type I collagen	No overexpression of type III collagen				
CC(C)=CCCC(C)=CCCC(C)=CCCC=C(C)CCC=C(C)CCC(=O)OC[C@H](O)[C@H]1OC(=O)C(O)=C1O [VitC-SQ, 6-O-[4,8,13,17,21-pentamethyl-docosa-4,8,12,16,20-pentaenoyl] ascorbic acid]		Moderate dermal stimulation	Slight epidermal stimulation	Fairly definite dermal stimulation	Definite epidermal stimulation	Slight overexpression of neutral GAGs	Definite overexpression of neutral GAGs	No overexpression of the epidermal acid GAGs	No overexpression of epidermal acid	Slight underexpression of type I collagen	Slight overexpression of type III collagen	greater than VitC-Palm	half as toxic as VitC-palm	600 µM	
CCCCCCCCCCCCCCCC(=O)OC[C@H](O)[C@H]1OC(=O)C(O)=C1O [VitC-palm, 6-ascorbyl palmitate]		No dermal stimulation	No epidermal stimulation	Moderate dermal stimulation	No epidermal stimulation	Slight overexpression of neutral GAGs	Very moderate overexpression of neutral	No overexpression of epidermal acid	No overexpression of epidermal acid	No overexpression of type I collagen	Very slight overexpression of type III				250 µM
